In brackets after ≈: the same amount, converted by molar mass. Read-outs that look alike come from different tables or passages of the source.
Legend:
[1] = system: L. monocytogenes strains (CIP 103575, LM1, LM2, LM3); test: MIC on a wider panel of strains (Example 10), microdilution; type: cell-based; details: Listeria monocytogenes, CIP103575
Method: The cultures studied, freshly isolated (after incubation on a blood agar at 37° C. for 18 h), are taken up in sterile water (10 mL) until obtaining a 0.5 McFarland (Mc) suspension i.e. 1 to 1 to 2×10^8 CFU (bacteria)/cm^3. The bacterial suspension was then diluted to obtain a final concentration of 1×10^6 CFU/cm^3. Each well contains an identical quantity of Mueller-Hinton medium (a rich medium for bacterial culture) and bacteria with final [concentration of] 0.5×10^6 CFU/cm^3. The test compounds of interest are solubilized in ethanol or DMSO at 25 mg/mL before being diluted to different concentrations two by two. On the multiwell plate, a first series has been planned comprising the culture medium without the test compound of interest. It corresponds to the growth control (control well). These controls serve as reference for comparing bacterial growth with that of the subsequent wells comprising different concentrations of the test compound of interest. The second series of wells comprises the mother solution for the test compound of interest for a concentration in the wells of 256 mg/L (7 mM). Each series of wells was diluted two by two until the last series for a final concentration of 0.25 mg/L (0.0007 mM). Each concentration is duplicated in the same plate. The plate is incubated for 18 h at 37° C. […] If there is antibacterial activity, the bacterial growth is inhibited, which means that no turbidity or bacterial residue is present. The minimum inhibitory concentrations (MIC) are tested on Gram-positive bacterial strains according to the recommendations of the “Clinical Laboratory Standards Institute” (Clinical-Laboratory-Standards-Institute, 6th ed. Approved standard M100-S17. CLSI, Wayne, Pa., 2007). The clinical strains have been isolated in the Hospice de Lyon. Listeria: L. monocytogenes (CIP 103575), clinical strain isolated from hemoculture (015189074801, LM1), a strain isolated from cerebrospinal liquid (015170199001, LM2), clinical strains isolated from hemoculture (015181840701, LM3). The cultures studied, freshly isolated (after incubation on a blood agar at 37° C. for 18 h), are taken up in sterile water (10 mL) until obtaining a 0.5 McFarland (Mc) suspension i.e. At 10^8 CFU (bacteria)/cm^3. The bacterial suspension was then diluted to obtain a final concentration of 10^6 CFU/cm^3.

[2] = Water solubility of test solutions; type: physicochemical; details: solutions diluted in water, 2.5% m ethanol; precipitates formed
Method: Tests have been conducted on Gram-positive bacteria with methyl glucopyranoside derivatives. […] After sterilization the solutions are diluted in water. […] Because precipitates formed in the solutions, the effect of these methyl glucopyranoside C10 and C12 acetals was not able to be evaluated. The results obtained for antimicrobial tests on the 3 bacterial strains L. monocytogenes (CIP 103575), E. faecalis (ATCC® 29212) and S. aureus (ATCC® […]) are summarized in Table 1.

[3] = L. monocytogenes CIP 103575, read-out: MIC Listeria CIP 103575

MIC [1, 3] [µg/mL] | water solubility [2] | MIC ([1]; clinical strain from hemoculture 015181840701, read-out: MIC Listeria LM3) [µg/mL] | MIC ([1]; clinical strain from hemoculture 015189074801, read-out: MIC Listeria LM1) [µg/mL] | MIC ([1]; strain from cerebrospinal liquid 015170199001, read-out: MIC Listeria LM2) [µg/mL] | Structure (SMILES)
64 (≈ 178 µM) | low water solubility |  |  |  | CCCCCCCCCCCC1OCC2O[C@H](OC)C(O)C(O)[C@@H]2O1 (stereo partly drawn) [Compound 1e, Methyl 4,6-O-Dodecylidene α-D-glucopyranoside]
16 (≈ 44.4 µM) |  | 64 (≈ 178 µM) | 16 (≈ 44.4 µM) | 16 (≈ 44.4 µM) | CCCCCCCCCCCC1OCC2O[C@@H](OC)C(O)C(O)[C@@H]2O1 (stereo partly drawn) [Compound 1f, Methyl 4,6-O-Dodecylidene β-D-glucopyranoside]

From patent US10537103B2, “Antibacterial composition containing an isomer mixture of monosaccharide alkyl monoacetals or monoethers” (TEREOS STARCH & SWEETENERS BELGIUM, priority 2014, dated 2020)
